In ChEMBL document CHEMBL1201862, “PubChem BioAssay data set” (2004):
Active and inactive are the calls of the source.

How the values were obtained:
[1] = A Cell Based Secondary Assay To Explore Cytotoxicity of Compounds that Sensitize Mycobacterium Tuberculosis to Beta-Lactam Antibiotics.; type: functional
[2] = target: T1, Short transient receptor potential channel 4 (Mus musculus, UniProt Q9QUQ5); assay: mouse TRPC4 channel inhibitors, dose response, cell-based, HEK293 TRPC4/mu-opioid, Fluo-4 calcium (AID 434942); type: functional;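 note: potency of inhibitors blocking the TRPC4 calcium response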
T1 sequence (Q9QUQ5 whole entry): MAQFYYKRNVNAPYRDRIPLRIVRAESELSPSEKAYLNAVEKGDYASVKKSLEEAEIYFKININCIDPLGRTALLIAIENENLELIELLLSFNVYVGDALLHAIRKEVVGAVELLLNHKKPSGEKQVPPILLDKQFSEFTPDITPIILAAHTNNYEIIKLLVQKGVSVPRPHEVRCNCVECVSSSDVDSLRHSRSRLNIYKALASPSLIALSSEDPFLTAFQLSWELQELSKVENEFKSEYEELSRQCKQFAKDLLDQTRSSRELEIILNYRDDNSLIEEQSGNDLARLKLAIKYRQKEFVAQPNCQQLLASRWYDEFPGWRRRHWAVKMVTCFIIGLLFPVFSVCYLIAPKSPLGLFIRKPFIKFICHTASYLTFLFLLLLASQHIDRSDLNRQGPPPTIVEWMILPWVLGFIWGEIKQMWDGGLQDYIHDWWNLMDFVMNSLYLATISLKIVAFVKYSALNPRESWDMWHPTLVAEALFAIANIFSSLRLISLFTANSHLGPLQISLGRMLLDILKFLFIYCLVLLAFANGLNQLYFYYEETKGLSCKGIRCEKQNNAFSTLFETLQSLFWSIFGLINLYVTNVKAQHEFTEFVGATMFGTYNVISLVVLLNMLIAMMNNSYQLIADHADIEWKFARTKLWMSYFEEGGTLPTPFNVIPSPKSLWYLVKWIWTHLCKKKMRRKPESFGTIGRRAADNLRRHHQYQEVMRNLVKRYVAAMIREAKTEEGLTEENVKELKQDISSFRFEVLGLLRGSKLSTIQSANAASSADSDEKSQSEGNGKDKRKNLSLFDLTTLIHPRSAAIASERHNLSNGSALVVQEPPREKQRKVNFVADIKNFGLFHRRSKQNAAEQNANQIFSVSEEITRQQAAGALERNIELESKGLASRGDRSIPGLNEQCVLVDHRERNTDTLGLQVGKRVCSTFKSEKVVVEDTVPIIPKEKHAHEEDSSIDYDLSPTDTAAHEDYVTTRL

Protein RecA = target: T2, Protein RecA (Mycobacterium tuberculosis, UniProt P9WHJ3); assay: Fluorescence Cell-Free Homogeneous Dose Retest to Identify Inhibitors of RecA-Intein Splicing Activity. [Related pubchem assays (depositor defined):AID2097, AID2223, AID489010, AID492950]; type: functional
T2 sequence (P9WHJ3 whole entry): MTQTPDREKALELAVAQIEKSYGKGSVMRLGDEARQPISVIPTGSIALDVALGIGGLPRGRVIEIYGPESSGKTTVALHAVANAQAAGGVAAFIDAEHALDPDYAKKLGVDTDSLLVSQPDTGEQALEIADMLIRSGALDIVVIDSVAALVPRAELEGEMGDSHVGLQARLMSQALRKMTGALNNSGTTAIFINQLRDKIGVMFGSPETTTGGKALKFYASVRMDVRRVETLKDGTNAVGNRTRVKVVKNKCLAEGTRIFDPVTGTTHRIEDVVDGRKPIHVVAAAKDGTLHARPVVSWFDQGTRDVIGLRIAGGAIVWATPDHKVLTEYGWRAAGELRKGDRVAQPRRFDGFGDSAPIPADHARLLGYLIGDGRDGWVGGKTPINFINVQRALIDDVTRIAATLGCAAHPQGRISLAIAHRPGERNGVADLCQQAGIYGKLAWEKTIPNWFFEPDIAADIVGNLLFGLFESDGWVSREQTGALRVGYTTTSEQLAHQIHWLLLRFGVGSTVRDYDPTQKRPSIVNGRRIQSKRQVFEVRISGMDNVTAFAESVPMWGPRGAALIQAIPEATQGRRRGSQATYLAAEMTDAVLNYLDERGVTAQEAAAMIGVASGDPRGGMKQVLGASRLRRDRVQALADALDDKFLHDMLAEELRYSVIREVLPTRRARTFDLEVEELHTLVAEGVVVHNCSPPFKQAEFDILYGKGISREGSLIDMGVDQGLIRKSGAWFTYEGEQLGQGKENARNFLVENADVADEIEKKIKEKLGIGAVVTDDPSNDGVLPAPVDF

[3] = target: T3, Replicative DNA helicase DnaB (Mycobacterium tuberculosis, UniProt P9WMR3); assay: DnaB intein splicing inhibitors, dose response, biochemical, cell-free fluorescence (AID 449749); type: functional
T3 sequence (P9WMR3 whole entry): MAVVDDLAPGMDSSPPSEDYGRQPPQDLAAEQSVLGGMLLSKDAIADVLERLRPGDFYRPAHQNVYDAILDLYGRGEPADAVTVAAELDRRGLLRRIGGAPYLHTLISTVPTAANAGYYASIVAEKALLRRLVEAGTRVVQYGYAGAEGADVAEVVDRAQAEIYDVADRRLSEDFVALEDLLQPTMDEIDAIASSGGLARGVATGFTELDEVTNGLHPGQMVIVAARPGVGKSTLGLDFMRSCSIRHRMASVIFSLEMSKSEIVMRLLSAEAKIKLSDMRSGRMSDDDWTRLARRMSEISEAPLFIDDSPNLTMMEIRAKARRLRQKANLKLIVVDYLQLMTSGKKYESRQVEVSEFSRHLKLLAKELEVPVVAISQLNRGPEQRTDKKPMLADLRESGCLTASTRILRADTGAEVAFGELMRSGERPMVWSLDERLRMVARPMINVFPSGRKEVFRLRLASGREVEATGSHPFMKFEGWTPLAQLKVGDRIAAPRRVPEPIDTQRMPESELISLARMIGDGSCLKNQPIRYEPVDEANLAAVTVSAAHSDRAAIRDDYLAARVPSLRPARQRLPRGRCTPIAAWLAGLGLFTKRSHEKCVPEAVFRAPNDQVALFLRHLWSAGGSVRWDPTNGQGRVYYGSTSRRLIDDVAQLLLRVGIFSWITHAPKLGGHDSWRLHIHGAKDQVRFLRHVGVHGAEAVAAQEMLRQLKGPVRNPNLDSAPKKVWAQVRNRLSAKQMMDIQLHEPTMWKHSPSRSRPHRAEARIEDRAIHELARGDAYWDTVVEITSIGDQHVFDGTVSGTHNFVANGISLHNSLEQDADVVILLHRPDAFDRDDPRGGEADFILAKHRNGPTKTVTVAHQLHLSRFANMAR

Aminopeptidase N = target: T4, Aminopeptidase N (Plasmodium falciparum FcB1/Columbia, UniProt O96935); assay: P. falciparum M1AAP inhibitors, biochemical, fluorogenic H-Leu-NHMec substrate, 1536-well (AID 1445); parameters: species or system Plasmodium falciparum 3D7, 3D7
T4 sequence (O96935 whole entry): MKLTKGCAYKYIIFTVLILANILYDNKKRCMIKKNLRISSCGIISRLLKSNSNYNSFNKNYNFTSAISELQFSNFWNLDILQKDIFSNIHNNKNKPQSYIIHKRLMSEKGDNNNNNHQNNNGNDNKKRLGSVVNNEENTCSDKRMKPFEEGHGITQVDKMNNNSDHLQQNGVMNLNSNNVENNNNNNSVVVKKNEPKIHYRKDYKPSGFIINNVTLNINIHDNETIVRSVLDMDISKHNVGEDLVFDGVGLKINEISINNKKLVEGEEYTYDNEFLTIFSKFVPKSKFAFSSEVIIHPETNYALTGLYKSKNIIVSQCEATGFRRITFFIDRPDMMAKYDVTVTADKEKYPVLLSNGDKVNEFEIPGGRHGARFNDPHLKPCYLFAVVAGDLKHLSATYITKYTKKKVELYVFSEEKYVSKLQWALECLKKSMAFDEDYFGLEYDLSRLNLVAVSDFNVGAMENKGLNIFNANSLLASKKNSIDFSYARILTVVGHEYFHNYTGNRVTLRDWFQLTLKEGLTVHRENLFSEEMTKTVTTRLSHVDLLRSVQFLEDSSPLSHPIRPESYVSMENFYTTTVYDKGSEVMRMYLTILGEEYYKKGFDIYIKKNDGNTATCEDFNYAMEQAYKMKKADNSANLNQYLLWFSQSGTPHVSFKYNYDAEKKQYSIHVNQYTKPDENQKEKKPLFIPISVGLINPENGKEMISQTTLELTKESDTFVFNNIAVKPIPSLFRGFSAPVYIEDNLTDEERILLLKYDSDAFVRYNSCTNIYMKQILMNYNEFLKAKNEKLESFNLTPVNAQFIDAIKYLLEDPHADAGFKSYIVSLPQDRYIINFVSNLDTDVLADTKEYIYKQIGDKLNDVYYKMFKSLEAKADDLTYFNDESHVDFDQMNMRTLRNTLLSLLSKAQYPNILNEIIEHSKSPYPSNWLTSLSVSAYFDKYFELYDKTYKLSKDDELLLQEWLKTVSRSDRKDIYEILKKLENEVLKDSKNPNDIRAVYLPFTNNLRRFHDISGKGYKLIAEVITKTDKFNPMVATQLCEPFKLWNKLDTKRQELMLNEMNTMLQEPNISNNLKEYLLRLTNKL

| Structure (SMILES) | CC50 [1] | IC50 (Aminopeptidase N) | other results |
| --- | --- | --- | --- |
| O=C(Nc1ccc(C(F)(F)F)cc1)c1cc(-c2cccnc2)nc2ccc(Br)cc12 | > 40 µM (active) |  |  |
| CCC(C)NC(C(=O)Nc1ccc(Cl)c([N+](=O)[O-])c1)c1ccccc1 (configuration not stated) |  |  | EC50 [2]: 7.5 µM (active) |
| Brc1ccc(CNc2ccc3ncccc3c2)cc1 | > 40 µM (active) |  | EC50 (Protein RecA): > 380 µM (inactive); AC50 [3]: > 380 µM (inactive) |
| O=C(O)c1ccc(NC(S)=NC(NC(=O)c2ccco2)C(Cl)(Cl)Cl)cc1 (configuration not stated) |  | 60.5 µM (active) |  |
| Cc1cc(=O)oc2cc3c(cc12)OCCN3 |  | 32.8 µM (active) |  |
